{"source": "paper PMC5339480", "about": "“Mutagenic and Cytotoxicity LQB 123 Profile: Safety and Tripanocidal Effect of a Phenyl-t-Butylnitrone Derivative” (BioMed Research International, 2017)", "key": {"Salmonella": {"test_system": "Salmonella", "conditions": "cited from earlier work"}, "T. cruzi": {"test_system": "T. cruzi", "parameters": "method as in PMID 20510218", "conditions": "treated only with PBN; cited from earlier work"}, "[1]": {"test_system": "Salmonella typhimurium TA1535", "test": "Salmonella/microsome assay, TA1535", "description": "(§1) Stationary growth cultures of histidine auxotrophic Salmonella typhimurium (2 × 10^9 cells/mL) TA97, TA98, TA100, TA102, and TA1535 strains were obtained at 37°C in lysogenic broth (LB, 10 g/L tryptone; 5 g/L yeast extract; 10 g/L NaCl) containing 8 μg/mL ampicillin and 2 μg/mL tetracycline (only for TA102). All strains used in the present work were from our laboratory collection. […] Then, the Ames test was performed according to Maron and Ames. DMSO was used as a negative control. […] All chemicals were from Sigma Co."}, "[2]": {"test_system": "Salmonella typhimurium TA100", "test": "Salmonella/microsome assay, TA100", "description": "as §1"}, "[3]": {"test_system": "Salmonella typhimurium TA97", "test": "Salmonella/microsome assay, TA97", "assay_type": "cell-based", "conditions": "+S9, positive control (PC) 517 μM", "description": "(§2) DMSO was used as a negative control. […] All chemicals were from Sigma Co."}, "[4]": {"test_system": "Salmonella typhimurium TA98", "test": "Salmonella/microsome assay, TA98", "assay_type": "cell-based", "conditions": "+S9, positive control (PC) 517 μM", "description": "as §2"}, "[5]": {"conditions": "TA1535, −S9, positive control (PC) 154 μM"}, "[6]": {"conditions": "TA100, −S9, positive control (PC) 769 μM"}}, "data": [{"smiles": "O=C(Cn1ccnc1[N+](=O)[O-])NCc1ccccc1", "note": "[benznidazole]", "values": [{"measurement": "dose giving the maximum mutagenic rate", "setting": "Salmonella", "value": 100, "unit": "micrograms per plate"}]}, {"smiles": "CC(C)(C)/[N+]([O-])=C/c1ccccc1", "note": "[PBN, alpha-phenyl-tert-butyl nitrone]", "values": [{"measurement": "parasite persistence", "setting": "T. cruzi", "value": "no decline in parasite persistence"}]}, {"smiles": "[N-]=[N+]=[N-].[Na+]", "note": "[AS, sodium azide]", "values": [{"measurement": "MI (mutagenicity index)", "setting": "[1]; [5]", "value": 47.3}, {"measurement": "Number of revertant colonies per plate, Mean ± SD", "setting": "[1]; [5]", "value": "615 ± 83^∗"}, {"measurement": "MI (mutagenicity index)", "setting": "[2]; [6]", "value": 3.2}, {"measurement": "Number of revertant colonies per plate, Mean ± SD", "setting": "[2]; [6]", "value": "637 ± 52^∗"}]}, {"smiles": "Nc1ccc2cc3ccccc3cc2c1", "note": "[2-AA, 2-aminoanthracene]", "values": [{"measurement": "MI (mutagenicity index)", "setting": "[1]; Salmonella typhimurium", "value": 10.1}, {"measurement": "Number of revertant colonies per plate, Mean ± SD", "setting": "[1]; Salmonella typhimurium", "value": "168 ± 18^∗"}, {"measurement": "MI (mutagenicity index)", "setting": "[2]; Salmonella typhimurium", "value": 4.6}, {"measurement": "Number of revertant colonies per plate, Mean ± SD", "setting": "[2]; Salmonella typhimurium", "value": "1257 ± 107^∗"}, {"measurement": "MI (mutagenicity index)", "setting": "[3]", "value": 9.0}, {"measurement": "Number of revertant colonies per plate, Mean ± SD", "setting": "[3]", "value": "1488 ± 139^∗"}, {"measurement": "MI (mutagenicity index)", "setting": "[4]", "value": 16.0}, {"measurement": "Number of revertant colonies per plate, Mean ± SD", "setting": "[4]", "value": "291 ± 36^∗"}]}]}
